Assay [1] relates to human ESC/iPSCs. The assay can be described thus: iKCs derivation from human ESC/iPSCs: critical medium components. The class given is cell-based. Particulars: for K14 expression with different fibroblast growth factors: anti-K14 immunofluorescence.
Assay [2] deals with primary keratinocytes cultured in KCM4. The class given is cell-based, human. Particulars: Passage 3 keratinocytes in KCM4, 1.5 mM Ca^2+ for 3 days. The method, then:
Keratinocytes were cultured in KCM4 and at 80%-90% confluence, cells were either treated with 1.5 mM Ca^2+ for 3 days or fixed (no calcium control). Cells were assessed by immunocytochemistry for expression of differentiation markers Kl, Loricrin, and Filaggrin using polyclonal rabbit antibodies (Covance).

In assay [3] the test system is primary human keratinocytes. The assay can be described thus: Long-term culture of primary keratinocytes (population doubling). Particulars: for life span and stemness of primary keratinocytes in culture: niacinamide 3 mM, BMP4 0.5 ng/mL as components of KCM4; for keratinocyte growth: KCM1 with IGF or insulin 0-10 μg/mL.
Protocol: Keratinocytes were maintained in the indicated medium and passaged every 4-5 days (at ˜80% confluence). For passage, keratinocytes were incubated with a 0.1% Trypsin in Versene solution at 37° C. for 5 minutes. The trypsin was neutralized with 0.5 mg/mL of trypsin inhibitor. The cells were centrifuged at 1200 rpm for 4 min. Cells were counted with a Cellometer (Nexcelom). Cells (25,000-50,000) were plated per well of 6-well plates in the indicated keratinocyte culture media. Media was changed every other day.
Cells were maintained by serial passage at ˜80% confluence until senescence. The total number of cell doublings for each passage was calculated using the following formula: 3.32 log(N/No). Where No refers to the number of cells plated at the beginning of each passage and N is the number of cells recovered at the end of each passage.
The test system of assay [4] is primary human keratinocytes. Nature of the assay: Morphology analysis of primary keratinocytes. The class given is cell-based.
Assay [5] has as its system primary human keratinocytes. Nature of the assay: Colony formation assay (CFA) of primary keratinocytes. The class given is cell-based. The conditions noted are these: for performance in CFA: KCM1 supplemented with either IGF or insulin, CFA in KCM1 (10 μg/mL insulin), 12 days. On the procedure:
Cells were plated at low density (250 cells/well of a 6-well plate) and allowed to grow for 8-12 days. For FIGS. 7 and 8, cells were switched from the indicated culture medium to KCM1 (10 μg/mL insulin) at the beginning of the CFA. Keratinocytes were cultured in KCM1 (10 μg/mL insulin) for 12 days and colony size was measured. For FIGS. 9, 10, and 12, the CFAs were performed with the medium used for maintaining the keratinocytes. KCM4 needed to be supplemented with 5 μg/mL insulin to support colony growth. Colonies were allowed to grow for 8 days and colony size was measured. Following culture, plates were fixed and stained with Hoechst stain. The whole plate was imaged at 40× with an ImageXpress high content imager (Molecular Devices). The total number of colonies per well was counted and the size of each colony was measured using ImageJ software. Colony counts are shown in bar graphs where bar height represents the average number of colonies/well for each passage and the error bars represent the standard deviation. Colony sizes are presented in box and whisker plots where the center line represents the median, the box represents the inter-quartile range and the whiskers represent the 5-95 percentile. Data that fall outside this range are plotted individually.

Setting [6] is: Passage 0, Day 14 differentiation culture, phase-contrast.
The mark [7] stands for this setting: Passage 0, Day 14 differentiation culture.
Setting [8] is: KCM1, IGF and low concentrations of insulin (0.05 μg/mL and 0 μg/mL).

This note sets out measurements from patent US10047341B2, “Generation of keratinocytes from pluripotent stem cells and maintenance of keratinocyte cultures” (FUJIFILM Cellular Dynamics, Inc., priority 2014, dated 2018).

Entries after “also recorded” stand apart in the source; their conditions may differ.

On to `Cc1cccc(-c2[nH]ncc2-c2ccc3ncccc3n2)n1` [TGFRKi, TGFβ RI Kinase Inhibitor II, reference compound], for which, in assay [1] (setting [6]), the “iKCs derivation when component is left out of the media” value is reported as “iKCs cannot be derived efficiently”.
Turning to `[Ca+2]` [calcium], the “differentiation at too high medium level of component” value in assay [1] (1 mM) is given as “simple epithelial progenitors would not further differentiate into keratinocytes”. For the same molecule, the “expression of differentiation markers Keratin 1, Loricrin, and Filaggrin” value in assay [2] is “Expression of all three differentiation markers was detected”.
For `NC(=O)c1cccnc1` [niacinamide, reference compound], in assay [1] (setting [6]), the “differentiation when concentration of component is not sufficient” value was “the differentiation process was incomplete”. Further, the figures for the “life span and stemness of primary keratinocytes in culture” value in assay [3] and in assay [3] (listed as Niacinamide) were “maintained the stemness of primary keratinocyte stem cells in culture” and “extend the life span of primary keratinocytes in culture”, respectively. In assay [4] (primary keratinocytes cultured in the indicated medium), the cell size entry is given as “made the cells smaller”.
As for “EGF: epidermal growth factor (NSDSECPLSHDGYCLHDGVCMYIEALDKYACNCVVGYIGERCQYRDLKWWELR; UniProt P01133 971-1023, looked up)”, in assay [1] (setting [6]), the “differentiation when concentration of component is not sufficient” value is “the differentiation process was incomplete”.
Turning to FGF1: acidic fibroblast growth factor, the “K14 expression with different fibroblast growth factors” value in assay [1] (setting [7]) was “efficiently direct cells to express mature keratinocyte marker K14”.
With FGF2: fibroblast growth factor FGF2, the “K14 expression with different fibroblast growth factors” value in assay [1] (setting [7]) is “did not promote homogeneous K14 expression”.
As to “IGF: IGF1 growth factor, medium supplement (10 ng/mL)”, the keratinocyte growth result in assay [3] was “support human neonatal foreskin primary keratinocyte growth”. In addition, the “morphology at later passages (p6)” value in assay [4] (setting [8]) is “smaller and appear to be more tightly attached to each other”. In addition, in assay [5], the “performance in CFA” value is listed as “performed similarly”.
As to VEGF, in assay [3] (VEGF 25 ng/mL added to KCM4), the “proliferative potential in long-term culture” value was “increase the proliferative potential of keratinocytes; also recorded: increased the proliferative potential of primary keratinocytes”. The “morphology after addition of VEGF” value in assay [4] (VEGF 25 ng/mL added to KCM4) was “did not show any morphological differences”. Also, in assay [5] (VEGF 25 ng/mL added to KCM4), the “effect in CFA in later passages” value is “Positive effect”.
On to “insulin: insulin, medium supplement (0-10 μg/mL)”, for which the keratinocyte growth result in assay [3] is recorded as “grew well at all concentrations”; in assay [3] (listed as Insulin) it was “support human neonatal foreskin primary keratinocyte growth”. In addition, the “morphology at later passages (p6)” value is “smaller and appear to be more tightly attached to each other” in assay [4] (setting [8]); “many larger, differentiated cells” in assay [4] (KCM1, high concentrations of insulin (1 μg/mL and higher)). In addition, the “performance in CFA” value in assay [5] is “performed similarly”.
